What all share (assay type): functional
What all share (set-up): concentration or dose not given beside the values

In assay [1] the test system is Plasmodium berghei. The assay is described as follows: MMV: P. berghei-infected blood was withdrawn from mice by cardiac pucture before being immediately added to ookinete culture medium containing test compounds. 26 hr later, GFP-positive ookinetes were identified and counted by automated microscopy. All compounds were tested in 4 independent experiments and data presented here is the mean.

Assay [2] concerns Plasmodium falciparum. The assay is described as follows: MMV: P. falciparum NF54 functionally mature Stage V gametocytes were incubated for 24 hr in the presence of the test compounds. Gamete formation was then triggered by addition of 2uM xantheurenic acid and temperature decrease to ~20C. Male gamete exflagellation was recorded and analysed by automated microscopy after 20 min. All compounds were tested in 4 independent experiments and data presented here is the mean.

Assay [3] has as its system Plasmodium falciparum. The assay is described as follows: MMV: P. falciparum NF54 functionally mature Stage V gametocytes were incubated for 24 hr in the presence of the test compounds. Gamete formation was then triggered by addition of 2uM xantheurenic acid and temperature decrease to ~20C. Female gamete formation was recorded 24 hr later by automated microscopy detection of surface labelling of female gametes with a Cy3-conjugated antibody reactive to Pfs25. All compounds were tested in 4 independent experiments and data presented here is the mean. To be noted: NF54, 24 h.

`O=C(NCc1ccco1)C1CCN(S(=O)(=O)c2ccc(Br)cc2)CC1`: the inhibition (as a rule, the relative decrease from the control value, in per cent) was 31.69% in assay [1], 29.2% in assay [2] and 5.71% in assay [3].

For the molecule `Cc1ccc(Nc2nc(-c3ccccn3)cs2)cc1`, the figures for the inhibition in assay [1], in assay [2] and in assay [3] were 12.18%, 16.3% and 0.787%, respectively.

On to `Cc1ccc(C(=O)c2oc3ccc4c(C)cc(=O)oc4c3c2C)cc1`, for which the inhibition was -19.35% in assay [1], -7.03% in assay [2] and -29.5% in assay [3].

For the molecule `Cl.c1ccc2c(NCCCCCCNc3c4c(nc5ccccc35)CCCC4)c3c(nc2c1)CCCC3`, the inhibition in assay [1] was -0.2313%; in assay [2], 18.8%; in assay [3], -9.36%.

`OC(CNCC1CCCO1)Cn1c2ccc(Cl)cc2c2cc(Cl)ccc21` (stereo not given): the inhibition is 3.62% in assay [1], -34.5% in assay [2] and -43.4% in assay [3].

Take `CC(C)(C)CC(C)(C)NCC(O)COc1ccc(Cl)cc1Cl` (stereo not given): the figures for the inhibition in assay [1], in assay [2] and in assay [3] were -15.58%, -10.7% and -45.2%, respectively.

As to `Cc1ccc(-c2cc(C(=O)Nc3ccc(S(=O)(=O)N4CCCCC4)cc3)[nH]n2)c(O)c1`, the inhibition in assay [1] is -10.93%; in assay [2], 7.64%; in assay [3], -11.2%.

Consider `Brc1ccc(Nc2nc3ccccc3nc2Nc2ccc(Br)cc2)cc1`, for which the inhibition in assay [1] was -6.195%; in assay [2], 18.1%; in assay [3], -0.532%.

Take `COc1ccc(C(=O)NC(c2ccc(Cl)cc2Cl)c2cc(Cl)c3cccnc3c2O)cc1` (stereo not given): the values for the inhibition in assay [1], in assay [2] and in assay [3] were 1.805%, -11.1% and -10.1%, respectively.

`Fc1ccc2[nH]c3c(NCCCN4CCOCC4)ncnc3c2c1`: the inhibition is -27.65% in assay [1], 14.8% in assay [2] and -13.7% in assay [3].

Regarding `COc1ccc(-c2nonc2NC(=O)c2cccc(C)c2)cc1OC`, the results for the inhibition in assay [1], in assay [2] and in assay [3] were -9.338%, 31.3% and 3.1%, respectively.

Regarding `Cc1cc(Nc2ccc(OCc3ccccc3)cc2)nc2cc(O)ccc12`, the inhibition in assay [1] was -6.891%; in assay [2] it was 32.7%; in assay [3], 6.66%.

As for `CCC(C)NCC(O)(c1ccc(Cl)cc1)c1ccc(Cl)cc1` (stereo not given), the inhibition in assay [1] is 2.874%; in assay [2], 25.7%; in assay [3], -7.82%.

As to `Cc1ccc(-c2cc3c(SCC(=O)Nc4cc(C(F)(F)F)ccc4Cl)nccn3n2)cc1`, the inhibition in assay [1] is -10.47%; in assay [2], 11.4%; in assay [3], 0.168%.

Turning to `O=C(O)C(=O)O.Oc1ccccc1CN1CCN(C(c2ccccc2)c2ccccc2)CC1`, the values for the inhibition in assay [1], in assay [2] and in assay [3] were 19.05%, 23.5% and -11.9%, respectively.

With `Cc1[nH]c(-c2ccc(F)cc2)cc1C(=O)NC1CCN(Cc2ccccc2)CC1`, the inhibition is -7.189% in assay [1], 7.06% in assay [2] and -3.53% in assay [3].

With `COc1ccc(-c2c(C)nn3c(N)c(C#N)cnc23)cc1OC`, the inhibition was 6.903% in assay [1], -13.8% in assay [2] and -16.8% in assay [3].

Consider `CC(C)=CCN1CCC(C(=O)Nc2ccc(-c3nc4ccccc4[nH]3)cc2)CC1`, for which the inhibition is -16.54% in assay [1], -15.4% in assay [2] and -19.7% in assay [3].

Take `CC1CN(C(=O)c2sc3ccccc3c2Cl)CC(C)O1` (stereo not given): the inhibition was -8.352% in assay [1], 35.6% in assay [2] and -12.3% in assay [3].

On to `CC(C)(C)c1ccc(C2CC3=Nc4ccccc4N(C(=O)c4ccccc4Cl)C(c4ccc(F)cc4)C3=C(O)C2)cc1` (stereo not given), for which the results for the inhibition in assay [1], in assay [2] and in assay [3] were 4.566%, -39.9% and -44.4%, respectively.

As for `C[n+]1c2ccccc2nc2ccc(NCCO)cc21`, the inhibition was 4.233% in assay [1], 33.8% in assay [2] and -21.5% in assay [3].

As to `CCCCNc1nc(NC(C)(C)C)nc(NC(C)(C)C)n1`, the values for the inhibition in assay [1], in assay [2] and in assay [3] were 83.46%, -9.24% and -29.6%, respectively.

For the molecule `CCN1CCCC1CNc1[nH]cnc2c3cc(Cl)ccc3nc1-2` (stereo not given), the inhibition was -0.006896% in assay [1], 18.2% in assay [2] and 3.48% in assay [3].

Turning to `COc1ccc(C=C2SC(Nc3ccc(F)cc3)=NC2=O)c(OC)c1`, the figures for the inhibition in assay [1], in assay [2] and in assay [3] were 49.11%, 42.9% and -24.5%, respectively.

In the case of `CCCc1c(C)nc2ccc(Br)cc2c1O`, the results for the inhibition in assay [1], in assay [2] and in assay [3] were 47.59%, -14.5% and -18.5%, respectively.

Take `CCOC(=O)c1cnc2ccc(Cl)cc2c1NCCCN(C)C`: the inhibition is -2.955% in assay [1], -9.15% in assay [2] and -11.1% in assay [3].

With `COc1cc(C(=O)Nc2nc3c(cc4c5c(cccc53)CC4)s2)cc(OC)c1OC`, the inhibition in assay [1] was 5.808%; in assay [2], -1.82%; in assay [3], -22.3%.

Take `Cc1ccc(N2C3c4ccccc4N(S(=O)(=O)c4ccc(C)cc4)C2c2ccccc2N3S(=O)(=O)c2ccc(C)cc2)cc1`: the inhibition was -13.78% in assay [1], 24.2% in assay [2] and -6.27% in assay [3].

Regarding `Cc1cc(C=C2SC(=Nc3ccccc3)N(C3CCCC3)C2=O)c(C)n1-c1ccc(Cl)cc1`, the inhibition in assay [1] was -28.39%; in assay [2] it was 31.4%; in assay [3] it was -30.5%.

Turning to `COc1ccc2c(c1OC)C(=O)N1c3ccccc3N=C(c3ccc(C)cc3)CC21` (stereo not given), the figures for the inhibition in assay [1], in assay [2] and in assay [3] were -1.051%, 8.91% and -8.58%, respectively.

In the case of `Cc1cc(=O)oc2c1ccc1oc(C(=O)c3ccccc3)c(C)c12`, the inhibition in assay [1] was 6.058%; in assay [2], -11.5%; in assay [3], -19.6%.

In the case of `CN(C)c1ccc(-c2nc3cc(N)ccc3[nH]2)cc1`, the inhibition in assay [1] was -2.982%; in assay [2], 12.2%; in assay [3], -7.9%.

`COc1cccc(Nc2nc(NCCO)c3ccccc3n2)c1.Cl`: the inhibition was -13.29% in assay [1], -137% in assay [2] and -29.6% in assay [3].

As for `OCCNc1nc(Nc2ccc(Cl)c(Cl)c2)nc2ccccc12`, the inhibition in assay [1] was 17.26%; in assay [2], -35.4%; in assay [3], -25.8%.

As for `CCOc1ccc(-c2nonc2NC(=O)c2cccc(C)c2)cc1OCC`, the inhibition in assay [1] is -6.946%; in assay [2], 52.4%; in assay [3], -7.75%.

For `C=CC12CCN(CC1)C(C(O)c1ccnc3ccc(OC)cc13)C2.Cl` (stereo not given), the inhibition in assay [1] was -25.15%; in assay [2], -29.1%; in assay [3], -31.3%.

In the case of `O=C(O)C1Cc2c([nH]c3ccccc23)C(c2ccc(Cl)cc2Cl)N1` (stereo not given), the inhibition in assay [1] is -13.83%; in assay [2] it was 21%; in assay [3], -17.3%.

As to `Cc1ccc(F)cc1NC(=O)c1cc(Cl)ccc1Nc1ccccc1`, the values for the inhibition in assay [1], in assay [2] and in assay [3] were 6.256%, 43.2% and -12.6%, respectively.

Consider `CCN(CC)c1cc(C)c2cc(NC(=O)c3cccc(OC)c3)ccc2n1`, for which the results for the inhibition in assay [1], in assay [2] and in assay [3] were -7.501%, -1.32% and -22.1%, respectively.

As to `c1ccc(CNc2nc(Nc3ccccc3)nc3ccccc23)cc1`, the results for the inhibition in assay [1], in assay [2] and in assay [3] were -4.491%, -50.6% and -29.2%, respectively.

On to `Cc1ccc2c(C)nc(Nc3nc(C)cc(-c4ccccc4)n3)nc2c1`, for which the inhibition is -0.3138% in assay [1], -11.5% in assay [2] and -39.7% in assay [3].

Take `CCN(CC)CCNc1ncnc2c1[nH]c1ccc(Br)cc12`: the inhibition is 9.06% in assay [1], -106% in assay [2] and 13.8% in assay [3].

With `O=C(Nc1ccsc1C(=O)NC1CCCCC1)c1ccc(F)cc1`, the inhibition in assay [1] is -7.294%; in assay [2], 0.722%; in assay [3], -14.2%.

In the case of `COc1ccc(CCNC(=O)c2cc(S(=O)(=O)N3CC(C)CC(C)C3)ccc2Sc2ccc(F)cc2)cc1OC` (stereo not given), the inhibition in assay [1] is -21.03%; in assay [2], -26.1%; in assay [3] it was 4.07%.

Take `O=C(NCc1ccco1)C1CCN(S(=O)(=O)c2ccc(Cl)cc2)CC1`: the inhibition in assay [1] was 33.84%; in assay [2], 46.2%; in assay [3], -26.9%.

Consider `CCC(c1ccccc1)c1nn2c(-c3cccs3)nnc2s1` (stereo not given), for which the inhibition in assay [1] is -15.76%; in assay [2], 1.43%; in assay [3] it was -48.4%.

`O=C(Nc1ccc(Cl)cc1C(=O)Nc1ccncc1)c1ccc(Cl)cc1Cl`: the inhibition is 36.2% in assay [1], 7.46% in assay [2] and 9.34% in assay [3].

As for `CCOC(=O)c1cnc2c(C)cc(C)cc2c1Nc1ccc(OC)c(OC)c1`, the inhibition is 1.422% in assay [1], 25.9% in assay [2] and -14.2% in assay [3].

Turning to `FC(F)(F)c1cccc(Nc2nc(-c3ccccc3)nc3ncccc23)c1`, the figures for the inhibition in assay [1], in assay [2] and in assay [3] were -9.471%, 10.8% and 8.9%, respectively.

On to `CCN1CCN(Cc2ccc(NC(=O)c3cc4ccc5cccnc5c4[nH]3)cc2)CC1`, for which the inhibition in assay [1] was -14.48%; in assay [2], 15.9%; in assay [3] it was -5.39%.
